According to publication PMC8986850, “Development and exploration of novel substituted thiosemicarbazones as inhibitors of aldose reductase via in vitro analysis and computational study” (Scientific Reports, 2022):

Key:
[1] = DPPH radical scavenging activity; conditions: 100 µM compound, methanolic DPPH 0.025 mg/mL, 517 nm
Method: DPPH (2,2-diphenyl-1-picrylhydrazyl) was used to explore the free radical quenching ability of 3a-o so as to provide a gauge of their antioxidant potential. The experiment was conducted according to a previously reported protocol with slight modifications. Percent free radical scavenging activities (% FRSA) of 3a-o were determined by spectrophotometric analysis at 517 nm using a homogenous mixture of methanolic DPPH (0.025 mg/mL) and a 100 µM solution of the tested compound, with ascorbic acid used as a positive control (Fig. 3).

[2] = biological target: T1, ALR1 (Bos taurus, UniProt Q3ZCJ2); assay: ALR1 enzyme inhibition assay (enzyme extracted from calf kidneys); type: biochemical, bovine; conditions: bovine kidney ALR1, 100 µM inhibitor; read-out: I (%, 100 µM) (ALR1)
T1 construct: The calf’s kidneys were obtained after slaughtering and dissection; from tissue; host or cells: calf kidneys
Method: Compounds 3a-o were tested against ALR2 to evaluate their inhibitory potential against aldose reductase whereas selectivity was determined via performing ALR1 inhibition assay. For the enzyme inhibition assay, ALR2 and ALR1 were extracted from bovine sources (ALR2 from eyes and ALR1 from kidneys). Moreover, inhibitions studies were also carried out on the expressed ALR2 (human AKR1B1) and inhibition data for ALR2- bovine source and expressed enzyme was compared and analyzed. The protocols for enzyme extraction and expression in the bacterial system are included in the section of “Supporting information”. […] For the purpose of comparison and validation of enzyme inhibition data, these compounds were tested against human AKR1B1 (hAKR1B1) expressed in E. coli BL21 (DE3). We found a similar pattern of enzyme inhibition for the synthesized compounds against extracted enzyme (ALR2) as well as expressed enzyme (hAKR1B1).
For the determination of enzyme activity of ALR1 and ALR2, 100 µL of reaction mixture was composed of 20 µL of buffer (100 mM sodium phosphate, pH 6.2), 30 µL of enzyme extract, 20 µL of substrate (10 mM), 20 µL of cofactor (0.1 mM of NADPH) and 10 µL of test compound (1 mM)[6],[21]. The reaction mixture without cofactor was incubated at 32°C for 10 min, then the enzymatic reaction was initiated with the addition of NADPH and monitored for 5 minutes. Similar protocols were followed for ALR1 and ALR2, however the substrate was different for each enzyme, with sodium-D-glucoronate and DL-glyceraldehyde used as the substrates for the ALR1 and ALR2 assays, respectively. […] In addition, similar protocols were adopted for human AKR1B1 that was expressed in E. coli BL21 (DE3), though the determined protein concentration was 12 µg/mL for the expressed enzyme. Detailed protocols for the preparation of ALR1, ALR2 and expressed human AKR1B1 can be found in the supporting information.
The newly synthesized N-substitute thiosemicarbazones (3a-o) were dissolved in 100% DMSO and diluted with deionized water, keeping the DMSO concentration equal to 0.1% in the assay.
The calf’s kidneys were obtained after slaughtering and dissection, dissolved in 3 volumes of sodium phosphate buffer (10mM) which is composed of 2.0 mM EDTA, 2.5mM β-mercaptoethanol, 0.25M solution of sucrose at pH 7.25. First, the homogenisation was carried out then centrifugation of the homogenate was performed at 12000 x g at 0-2^◦C for 30 minutes. The precipitates containing insoluble lipids were discarded and the collected supernatant layer was treated with 40% saturation of ammonium sulphate. This liquid mixture was subjected to centrifugation at 11000 x g at 0-2^◦C for 30 minutes. Now, precipitates were again discarded and supernatant was collected and treated with 50% ammonium sulphate and procedure was repeated in the same manner as in previous step. In the last step, the saturation of ammonium sulphate was increased up to 75% and supernatant was subjected to same parameter of centrifugation. At this final step, precipitates were obtained and supernatant layer was discarded. The obtained material of precipitates was composed of ALR1and redissolved in initial buffer that was used during homogenisation. Finally, material was dialyzed overnight with same buffer system. The dialyzed fractions containing ALR1 were stored at -80^◦C for further use[5].

T1 sequence (Q3ZCJ2 whole entry): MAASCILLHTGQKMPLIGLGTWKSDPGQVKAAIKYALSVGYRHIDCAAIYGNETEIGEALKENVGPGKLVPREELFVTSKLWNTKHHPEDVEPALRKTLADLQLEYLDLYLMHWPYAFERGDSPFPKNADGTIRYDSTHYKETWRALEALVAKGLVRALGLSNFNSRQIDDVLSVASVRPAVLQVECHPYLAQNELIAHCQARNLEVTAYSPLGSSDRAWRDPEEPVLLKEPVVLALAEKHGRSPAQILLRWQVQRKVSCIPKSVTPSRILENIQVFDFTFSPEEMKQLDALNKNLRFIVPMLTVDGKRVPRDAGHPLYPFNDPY

inhibition at 100 µM [2]: 4.27 to 26.2%
Structure (SMILES): CC(C)(C)c1cc(C=NNC(=S)Nc2ccccc2F)c(O)c(C(C)(C)C)c1 [Compound 3m, 2-(3,5-di-tert-butyl-2-hydroxybenzylidene)-N-(2-fluorophenyl)hydrazine carbothioamide]
% FRSA (percent free radical scavenging activity) [1]: 75.95%
